Results taken from patent US20210154190A1, “SHP2 INHIBITOR COMPOSITIONS AND METHODS FOR TREATING CANCER” (Revolution Medicines, Inc., priority 2018, published 2021).

Target: T1, SHP2 T253M/Q257L (Homo sapiens, UniProt Q06124, Q257L/T253M)
T1 sequence (Q06124 1-593 T253M/Q257L): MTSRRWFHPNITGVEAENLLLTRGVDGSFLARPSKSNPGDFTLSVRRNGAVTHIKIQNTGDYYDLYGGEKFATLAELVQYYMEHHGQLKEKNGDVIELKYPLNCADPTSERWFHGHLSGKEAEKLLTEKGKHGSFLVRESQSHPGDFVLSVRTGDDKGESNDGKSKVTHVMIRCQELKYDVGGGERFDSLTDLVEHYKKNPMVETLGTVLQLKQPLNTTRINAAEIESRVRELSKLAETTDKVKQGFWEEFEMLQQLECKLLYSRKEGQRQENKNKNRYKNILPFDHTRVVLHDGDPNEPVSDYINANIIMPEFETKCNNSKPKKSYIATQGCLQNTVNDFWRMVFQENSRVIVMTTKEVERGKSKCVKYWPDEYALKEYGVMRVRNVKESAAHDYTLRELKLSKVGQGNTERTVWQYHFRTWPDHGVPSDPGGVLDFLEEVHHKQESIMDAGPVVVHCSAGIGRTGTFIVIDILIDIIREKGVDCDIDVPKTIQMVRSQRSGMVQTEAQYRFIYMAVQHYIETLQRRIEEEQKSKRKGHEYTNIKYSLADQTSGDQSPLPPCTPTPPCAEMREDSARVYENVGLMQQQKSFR
Test: SHP2 allosteric inhibition assay (DiFMUP), T253M/Q257L
Type: biochemical
Set-up: expressed in transfected cells
Conditions: Variant T253M/Q257L

Cc1nc(N2CCC3(CC2)CO[C@@H](C)[C@H]3N)c(CO)nc1-c1cccc(Cl)c1Cl [Compound B]
Biochemical sensitivity: no (Sensitive if IC50 < 2000 nM)
